Blank lines part the entries; values can stand above or below the compound they belong to.
Assays:
[1] = Dissociation constant, pKa of the compound; assay type: physicochemical
Chitinase = target: T1, Chitinase (Onchocerca volvulus, UniProt Q25615); assay: Inhibition of Onchocerca volvulus chitinase by fluorescence based assay
T1 sequence (Q25615 whole entry): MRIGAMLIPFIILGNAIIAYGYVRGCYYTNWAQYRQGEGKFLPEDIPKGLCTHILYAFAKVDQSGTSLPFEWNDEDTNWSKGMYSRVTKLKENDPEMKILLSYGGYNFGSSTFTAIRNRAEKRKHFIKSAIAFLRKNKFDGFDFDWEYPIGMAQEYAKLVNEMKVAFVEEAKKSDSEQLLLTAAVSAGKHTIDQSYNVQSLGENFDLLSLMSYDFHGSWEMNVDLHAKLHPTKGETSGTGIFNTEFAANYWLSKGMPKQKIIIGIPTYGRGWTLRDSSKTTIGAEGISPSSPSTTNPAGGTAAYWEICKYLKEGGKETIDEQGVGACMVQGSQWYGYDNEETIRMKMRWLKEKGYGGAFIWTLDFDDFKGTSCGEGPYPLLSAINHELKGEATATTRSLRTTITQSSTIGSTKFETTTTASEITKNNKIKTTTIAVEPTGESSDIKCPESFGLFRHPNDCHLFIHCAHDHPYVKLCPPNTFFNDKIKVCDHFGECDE

Glutamate NMDA receptor = assay: Displacement of [3H]CGP39653 from NMDA receptor in rat cortical synaptosomes; assay type: subcellular
[2] = Displacement of [3H]AMPA from AMPA receptor in rat cortical synaptosomes; assay type: subcellular
[3] = Displacement of [3H]KA from Kainate receptor in rat cortical synaptosomes; assay type: subcellular

pKa [1]: 6.21
SMILES: CCOC(=O)c1nnn(C)c1O

pKa [1]: 5.54
SMILES: CCOC(=O)c1c(O)nnn1C

pKa [1]: 5.14
SMILES: CCOC(=O)c1nn(C)nc1O

pKa [1]: 3.24
SMILES: CCOC(=O)c1nonc1O

pKa [1]: 6.71
SMILES: CCOC(=O)c1cn(C)nc1O

pKa [1]: 6.22
SMILES: CCOC(=O)c1nnn(Cc2ccccc2)c1O

pKa [1]: 5.38
SMILES: CCOC(=O)c1c(O)nnn1Cc1ccccc1

pKa [1]: 5.14
SMILES: CCOC(=O)c1nn(Cc2ccccc2)nc1O

pKa [1]: 4.21
SMILES: CCOC(=O)c1nsnc1O

More lines, now with the values behind:

SMILES: Cn1nnc(O)c1C(=O)Nc1ccc(Oc2ccccc2)cc1
IC50 (Chitinase): 4.69 µM

SMILES: O=C(Nc1ccc(Oc2ccccc2)cc1)c1c(O)nnn1CC1CCCCC1
IC50 (Chitinase): 5.11 µM

SMILES: O=C(Nc1ccc(Oc2ccccc2)cc1)c1nn(Cc2ccccc2)nc1OCc1ccccc1
IC50 (Chitinase): 0.41 µM

SMILES: O=C(Nc1ccc(Oc2ccccc2)cc1)c1c(OCc2ccccc2)nnn1Cc1ccccc1
IC50 (Chitinase): 0.41 µM

SMILES: O=C(Nc1ccc(Oc2ccccc2)cc1)c1c(OCc2ccccc2)nnn1CC1CCCCC1
IC50 (Chitinase): 0.52 µM

SMILES: N[C@@H](Cc1nsnc1O)C(=O)O
Ki (Glutamate NMDA receptor): > 100 µM
IC50 [2]: 0.065 µM
IC50 [3]: > 100 µM

SMILES: Cn1nc(O)c(CC(N)C(=O)O)n1 (racemic)
Ki (Glutamate NMDA receptor): > 100 µM
IC50 [3]: > 100 µM

SMILES: Cn1nnc(O)c1CC(N)C(=O)O (racemic)
Ki (Glutamate NMDA receptor): > 100 µM
IC50 [2]: 1.4 µM
pKa [1]: 6.42
IC50 [3]: > 100 µM

SMILES: N[C@@H](CCC(=O)O)C(=O)O [GLUTAMIC ACID]
pKa [1]: 4.2
